Data set [1] in a line: Half-life when incubated with mouse liver microsomes (MLM). The format is in vitro ADME. The conditions noted are these: half-life when incubated with mouse liver microsomes; read-out: MLM T½. As to the method: (§1) ^a Inhibition of GlcCer production in whole wild-type MDCKII cells. ^bHalf-life when incubated with mouse liver microsomes. ^cAreas under the drug concentration curve after single IP dose in mice (10 mg/kg). ^dReduction in brain levels of glucosylceramide in CBE mice after 14 days of qd dosing with test drug administered IP. NC=no change.

Data set [2] can be described thus: IP PK: areas under the drug concentration curve after single IP dose in mice. In kind it is in vivo. The conditions noted are these: for IP PK Brain AUC / AUC: mice, single IP dose 10 mg/kg; for AUC: mouse, plasma.
Data set [3] relates to brain glucosylceramide (GCS inhibition). Put plainly: Reduction of brain glucosylceramide in CBE mice. In kind it is in vivo. As to conditions: qd, 14 days. As to the method:
Reduction of Brain Glucosylceramide and Glucosylsphingosine in CBE Mice
The reduction by inhibitors of GCS in brain glucosylceramide and glucosylsphingosine content was determined by the use of mice with Gba 1 mutant alleles, termed D409V/null. These are knock-in mice with a Gba 1 point mutation encoding Valine (V) 409 for the wild type (WT) Aspartate (D) on one missense allele and a null heteroallele [D409V/null (9V/null)]. The D409V/null and WT littermates were of mixed gender and mixed, but matched, genetic backgrounds of C57BL/129Sv/FVB. (Xu Y H, Sun Y, Barnes S, Grabowski G A (2010) Comparative therapeutic effects of velaglucerase alfa and imiglucerase in a Gaucher disease mouse model. PLoS One 5: e10750.) Mice were treated with intraperitoneal conduritol B epoxide (CBE), an irreversible inhibitor of beta-glucocerebrosidase (25 mg/kg/day) for all groups beginning at post-partum day 15. Mice were concurrently treated with GCS inhibitor or vehicle control for 14 days. The mice were sacrificed 2 hours following the last injection and tissues including brain, liver, spleen, kidney and lung were analyzed for glucosylceramide and glucosylsphingosine by mass spectrometry.
(§2) Mouse Tissue Lipid Analysis
(§3) Lipid extractions of liver, kidney, and brain were performed as previously described (7). Briefly, frozen liver (about 0.5 g), two kidneys (about 0.3 g) and whole brain (about 0.4 g) were individually homogenized in sucrose buffer (250 mM sucrose, pH 7.4, 10 mM HEPES and 1 mM EDTA), at 0.2 g tissue/1 mL of sucrose buffer, with a Tri-R homogenizer. Each 0.8 mL of homogenate was mixed with 2 mL of methanol and 1 mL of chloroform, bath sonicated for 1 min and incubated at room temperature for 1 h. Tissue debris were removed by centrifugation at 2,400× gravity for 30 min. The pellets were re-extracted by mixing with 1 mL of methanol, 0.5 mL of chloroform and 0.4 mL of 0.9% NaCl (chloroform/methanol/0.9% NaCl, 1:2:0.8), incubated at room temperature for 1 h and centrifuged at 2,400× gravity for another 30 min. Two extracts were combined and mixed with 4.5 mL of chloroform and 1.2 mL of 0.9% NaCl (chloroform/methanol/0.9% NaCl, 2:1:0.8). After centrifugation at 800× gravity for 5 min, lower layer was washed with 3 mL of methanol and 2.4 mL of 0.9% NaCl. Second washing was carried with 3 mL of methanol, 2 mL of water and 0.4 mL of 0.9% NaCl followed by a 5 min centrifugation at 800× gravity. The resultant lower phase was collected and dried under a stream of N2 gas.
The analysis of neutral glycosphingolipids from mouse liver, kidney, and brain was processed after alkaline methanolysis. […] lipids were incubated with 2 mL of chloroform and 1 ml of 0.21N NaOH in methanol for 2 h (kidney) or 7.5 h (liver and brain) at RT. The lipid extract was normalized to 0.5 μmol of total phospholipid phosphate (liver and kidney) or 2 μmol of total phospholipid phosphate (brain) for high performance thin layer chromatography analysis. After alkaline methanolysis, the brain lipids were passed through a silica gel column (7). Borate-impregnated thin layer chromatography plates were developed in a two solvent system. Plates were first developed in chloroform/methanol (98:2, v/v). The plates loaded with kidney and liver lipids were then developed in chloroform/methanol/water (64:24:4, v/v/v), and brain lipids were further separated in chloroform/methanol/water (60:30:6, v/v/v). GlcCer levels were quantified by comparison to known standards.
as §1

Data set [4] deals with T1, glucosylceramide synthase (GCS) (Canis lupus familiaris, UniProt A0A8I3MXG6).
T1 construct: endogenous in cells; host or cells: parental (wild-type) MDCKII cells
T1 sequence (A0A8I3MXG6 1-394): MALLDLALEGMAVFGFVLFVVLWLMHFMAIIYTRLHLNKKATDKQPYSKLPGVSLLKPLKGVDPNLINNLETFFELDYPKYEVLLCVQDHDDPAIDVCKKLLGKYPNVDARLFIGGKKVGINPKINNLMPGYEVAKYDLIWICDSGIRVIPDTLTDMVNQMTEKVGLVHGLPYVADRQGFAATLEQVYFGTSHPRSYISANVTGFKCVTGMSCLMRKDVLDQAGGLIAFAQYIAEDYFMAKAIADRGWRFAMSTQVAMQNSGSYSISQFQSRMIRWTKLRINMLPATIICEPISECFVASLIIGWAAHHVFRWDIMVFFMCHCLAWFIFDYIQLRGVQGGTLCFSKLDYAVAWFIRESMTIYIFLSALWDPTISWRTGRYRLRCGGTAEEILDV
Put plainly: GCS inhibition in MDCKII cells (inhibition of GlcCer production in whole wild-type MDCKII cells). The format is cell-based. The conditions noted are these: inhibition of GlcCer production in whole wild-type MDCKII cells, 24 hours; read-out: MDCK IC50.
Procedure: GCS Inhibition in MDCKII Cells
Parental (WT-)MDCKII cells were routinely maintained in medium consisting of Opti-MEM/F12 (1:1), 5% FBS, 100 U/mL of penicillin, 100 μg/mL streptomycin and 200 mM L-glutamine. MDCKII cells were newly thawed from frozen ampules every two months.
The inhibitor-ethanol solutions then were diluted 50× into 2 mM delipidated bovine serum albumin-phosphate buffered saline solution to make water-soluble glycosphingolipid inhibitor-bovine serum albumin complexes. The inhibitor-bovine serum album complexes were sterile-filtered and stored at −20° C. Prior to use, portions of the inhibitor-bovine serum albumin complexes were further diluted with Opti-F12 to make treatment solutions. Equal amounts of bovine serum albumin and ethanol were added into the control cultures. Cells (5×10^5) were seeded into 10-cm culture dishes containing 10 ml of Opti-F12 with 5% FBS. After 24 hours, the medium was replaced with fresh serum-free Opti-F12 medium, and cells were exposed to candidate GCS inhibitors at concentrations of 0, 1, 3, 10, 30, 100 and 300 nM for 24 hours.
Briefly, cells were washed with ice-cold phosphate buffered saline, fixed by methanol, and collected with rubber scraper. Chloroform was then added to yield a theoretical ratio of chloroform:methanol:water at 1:2:0.8 (v/v/v) to form a mono-phase. Cell debris and proteins were removed by centrifugation at 2200×g for 30 min. The supernatants were portioned by adding chloroform and 0.9% NaCl. […] A portion of purified glycosphingolipids normalized to 100 nmol of total phospholipids was analyzed by high performance thin layer chromatography. The thin layer chromatography separations were processed twice. The plate pretreated with 1% sodium borate was first developed in a solvent system consisting of chloroform/methanol (98/2, v/v). After air drying, the plate was then developed in a solvent system containing chloroform/methanol/water (70/30/4, v/v/v). The levels of glucosylceramide were detected by charring with 8% cupric sulfate in 8% phosphoric acid, and quantified by densitometric scanning using ImageJ, NIH Image.

Data set [5] has as its system brain glucosylceramide content. Put plainly: Brain glucosylceramide content after intraperitoneal administration to mice for 3 days. In kind it is in vivo. As to conditions: intraperitoneal administration for 3 days. As to the method: The compounds were screened for inhibition of GCS in broken cell and whole cell assays, and for MDR1 substrate recognition.
as §2
as §3, with “Second washing was carried with 3 mL of methanol, 2 mL of water and 0.4 mL of 0.9% NaCl followed by a 5 min centrifugation at 800× gravity. The resultant lower phase was collected and dried under a stream of N2 gas.” left out
The analysis of neutral glycosphingolipids from mouse liver, kidney, and brain was processed after alkaline methanolysis. […] GlcCer levels were quantified by comparison to known standards.

What is called AUC is the area under the concentration-time curve, a measure of exposure. Low values mean low exposure, high ones high exposure. By IC50 is commonly meant the concentration that gives 50% inhibition.

Structures are written as SMILES. Where a name gives a salt, the structure may show the parent alone.

As to `O=C(CC1Cc2ccccc2C1)N[C@H](CN1CCCC1)[C@H](O)c1cccc(Cl)c1` [Example 1, N-((1R,2R)-1-(3-chlorophenyl)-1-hydroxy-3-(pyrrolidin-1-yl)propan-2-yl)-2-(2,3-dihydro-1H-inden-2-yl)acetamide], the half-life in data set [1] was found to be 18 min. Further, in data set [2], the “IP PK Brain AUC” value amounted to 1109 ng·h/mL and the AUC is 1540 ng·h/mL. In data set [3] (36 μmol/kg/day IP), the “Reduction in brain GlcCer in CBE mice” value is reported as 23%. For the same molecule, in data set [4], the IC50 turned out to be 1000 pM.

Turning to `CC(C)(C)Oc1ccc([C@@H](O)[C@@H](CN2CCCC2)NC(=O)CC2Cc3ccccc3C2)cc1Cl` [Example 2, N-((1R,2R)-1-(4-(tert-butoxy)-3-chlorophenyl)-1-hydroxy-3-(pyrrolidin-1-yl)propan-2-yl)-2-(2,3-dihydro-1H-inden-2-yl)acetamide], the half-life in data set [1] was 170 min. Besides, in data set [2], the “IP PK Brain AUC” value came to 1316 ng·h/mL and the AUC turned out to be 1990 ng·h/mL. Further, the “Reduction in brain GlcCer in CBE mice” value in data set [3] (26 μmol/kg/day IP) is listed as 21%. Also, the IC50 in data set [4] was found to be 81 pM.

With `O=C(CC1Cc2ccccc2C1)N[C@H](CN1CCCC1)[C@H](O)c1ccc(OC2CC2)c(Cl)c1` [Example 4, N-((1R,2R)-1-(3-chloro-4-cyclopropoxyphenyl)-1-hydroxy-3-(pyrrolidin-1-yl)propan-2-yl)-2-(2,3-dihydro-1H-inden-2-yl)acetamide], the half-life in data set [1] came to 24 min. In addition, in data set [2], the “IP PK Brain AUC” value was determined as 293 ng·h/mL and the AUC was determined as 1020 ng·h/mL. Besides, the “Reduction in brain GlcCer in CBE mice” value in data set [3] (26 μmol/kg/day IP) was 33%. The IC50 in data set [4] worked out at 140 pM.

As to `CC1(Oc2ccc([C@@H](O)[C@@H](CN3CCCC3)NC(=O)CC3Cc4ccccc4C3)cc2Cl)COC1` [Example 5, N-((1R,2R)-1-(3-chloro-4-((3-methyloxetan-3-yl)oxy)phenyl)-1-hydroxy-3-(pyrrolidin-1-yl)propan-2-yl)-2-(2,3-dihydro-1H-inden-2-yl)acetamide], in data set [1], the half-life is 40 min. Moreover, in data set [2], the “drug exposure in the brain versus compound lacking the 3-chloro substituent” value is recorded as “improved”, the “IP PK Brain AUC” value came to 366 ng·h/mL and the AUC came out at 849 ng·h/mL. Moreover, in data set [3] (100 μmol/kg/day IP), the “Reduction in brain GlcCer in CBE mice” value is listed as 64%. Besides, the IC50 in data set [4] was 740 pM.

Regarding `CC1(C)COc2cc([C@@H](O)[C@@H](CN3CCCC3)NC(=O)CC3Cc4ccccc4C3)cc(Cl)c2O1` [Example 7, N-((1R,2R)-1-(8-chloro-2,2-dimethyl-2,3-dihydrobenzo[b][1,4]dioxin-6-yl)-1-hydroxy-3-(pyrrolidin-1-yl)propan-2-yl)-2-(2,3-dihydro-1H-inden-2-yl)acetamide], in data set [1], the half-life was determined as 44 min. Besides, in data set [2], the “drug exposure in the brain versus compound lacking the 3-chloro substituent” value was “improved”, the “IP PK Brain AUC” value worked out at 129 ng·h/mL and the AUC came out at 590 ng·h/mL. Also, the “Reduction in brain GlcCer in CBE mice” value in data set [3] (26 μmol/kg/day IP) turned out to be 49%. The IC50 in data set [4] worked out at 61 pM.

`O=C(CC1Cc2ccc(F)cc2C1)N[C@H](CN1CCCC1)[C@H](O)c1cccc(Cl)c1` (stereo partly drawn) [Example 9, N-((1R,2R)-1-(3-chlorophenyl)-1-hydroxy-3-(pyrrolidin-1-yl)propan-2-yl)-2-(5-fluoro-2,3-dihydro-1H-inden-2-yl)acetamide]: in data set [1], the half-life is 50 min. Also, in data set [2], the “IP PK Brain AUC” value is 869 ng·h/mL and the AUC was 2180 ng·h/mL. Moreover, the “Reduction in brain GlcCer in CBE mice” value in data set [3] (26 μmol/kg/day IP) came out at 43%. Also, the IC50 in data set [4] was determined as 800 pM.

Turning to `O=C(N[C@H](CN1CCCC1)[C@H](O)c1ccc(OC2CC2)c(Cl)c1)OC1Cc2ccccc2C1` [Example 12, 2,3-dihydro-1H-inden-2-yl ((1R,2R)-1-(3-chloro-4-cyclopropoxyphenyl)-1-hydroxy-3-(pyrrolidin-1-yl)propan-2-yl)carbamate], in data set [1], the half-life was found to be 29 min. In data set [2], the “IP PK Brain AUC” value was 210 ng·h/mL and the AUC came out at 370 ng·h/mL. Also, the “Reduction in brain GlcCer in CBE mice” value in data set [3] (26 μmol/kg/day IP) was determined as 32%. Moreover, in data set [4], the IC50 was 320 pM.

Regarding `O=C(N[C@H](CN1CC[C@@H](F)C1)[C@H](O)c1cccc(Cl)c1)OC1Cc2ccccc2C1.O=C(O)C(=O)O` [Example 15, 2,3-dihydro-1H-inden-2-yl ((1R,2R)-1-(3-chlorophenyl)-3-((R)-3-fluoropyrrolidin-1-yl)-1-hydroxypropan-2-yl)carbamate oxalate], the half-life in data set [1] was 0.8 min. Besides, in data set [2], the “IP PK Brain AUC” value was found to be 2656 ng·h/mL and the AUC came out at 913 ng·h/mL. Further, the IC50 in data set [4] worked out at 19500 pM.

With `[2H]C([2H])([2H])N(C(=O)CC1Cc2ccccc2C1)[C@H](CN1CCCC1)[C@H](O)c1cccc(Cl)c1` [Example 17, N-((1R,2R)-1-(3-chlorophenyl)-1-hydroxy-3-(pyrrolidin-1-yl)propan-2-yl)-2-(2,3-dihydro-1H-inden-2-yl)-N-(methyl-d3)acetamide], the half-life in data set [1] is 15 min. Further, in data set [2], the “IP PK Brain AUC” value is 742 ng·h/mL and the AUC worked out at 366 ng·h/mL. For the same molecule, the IC50 in data set [4] was 11000 pM.

Take `O=C(CC1Cc2ccccc2C1)N[C@H](CN1CCCC1)[C@H](O)c1cc(Cl)ccc1F` [Example 23, N-((1R,2R)-1-(5-chloro-2-fluorophenyl)-1-hydroxy-3-(pyrrolidin-1-yl)propan-2-yl)-2-(2,3-dihydro-1H-inden-2-yl)acetamide]: in data set [1], the half-life came to 24 min. Further, in data set [2], the “IP PK Brain AUC” value was “BLQ” and the AUC was 644 ng·h/mL. Further, the IC50 in data set [4] stood at 170 pM.

Regarding `CCCCCCCC(=O)N[C@H](CN1CCCC1)[C@H](O)c1ccc2c(c1)OCCO2` [eliglustat tartrate, N-((1R,2R)-1-(2,3-dihydrobenzo-[b][1,4]dioxin-6-yl)-1-hydroxy-3-(pyrrolidin-1-yl)propan-2-yl)octanamide], the “decrease in brain glucosylceramide content” value in data set [5] was “not seen”.

The values are drawn from US11220479B2, “Glucosylceramide synthase inhibitors and therapeutic methods using the same” (THE REGENTS OF THE UNIVERSITY OF MICHIGAN, priority 2019, dated 2022).
